ChEMBL document CHEMBL1671722, “Comparative in vitro activity profiles of novel bis-indole antibacterials against gram-positive and gram-negative clinical isolates” (Antimicrob Agents Chemother, 2010)
≈ marks a conversion by molar mass, not a printed value.

What was measured:
Clostridioides difficile = assay: Antimicrobial activity against Clostridium difficile by broth microdilution method; type: functional
Acinetobacter baumannii [1] = assay: Antimicrobial activity against multiple dug-resistant Acinetobacter baumannii by broth microdilution method; type: functional
Burkholderia cepacia = assay: Antimicrobial activity against Burkholderia cepacia by broth microdilution method; type: functional
Klebsiella pneumoniae [2] = assay: Antimicrobial activity against ESBL-production Klebsiella pneumoniae by broth microdilution method; type: functional
Proteus mirabilis = assay: Antimicrobial activity against Proteus mirabilis by broth microdilution method; type: functional
Klebsiella pneumoniae [3] = assay: Antimicrobial activity against Klebsiella pneumoniae by broth microdilution method; type: functional
Acinetobacter baumannii [4] = assay: Antimicrobial activity against Acinetobacter baumannii by broth microdilution method; type: functional
Pseudomonas aeruginosa = assay: Antimicrobial activity against Pseudomonas aeruginosa by broth microdilution method; type: functional
Escherichia coli = assay: Antimicrobial activity against Escherichia coli by broth microdilution method; type: functional
Serratia marcescens = assay: Antimicrobial activity against Serratia marcescens by broth microdilution method; type: functional
Haemophilus influenzae = assay: Antimicrobial activity against Haemophilus influenzae by broth microdilution method; type: functional
Enterococcus faecium [5] = assay: Antimicrobial activity against vancomycin-resistant Enterococcus faecium by broth microdilution method; type: functional
Enterococcus faecalis [6] = assay: Antimicrobial activity against vancomycin-susceptible Enterococcus faecalis by broth microdilution method; type: functional
[7] = system: Staphylococcus epidermidis; assay: Antimicrobial activity against methicillin-resistant Staphylococcus epidermidis by broth microdilution method; type: functional
Enterococcus faecium [8] = assay: Antimicrobial activity against vancomycin-susceptible Enterococcus faecium by broth microdilution method; type: functional
Streptococcus pneumoniae [9] = assay: Antimicrobial activity against penicillin-intermediate Streptococcus pneumoniae by broth microdilution method; type: functional
Streptococcus pneumoniae [10] = assay: Antimicrobial activity against penicillin-resistant Streptococcus pneumoniae by broth microdilution method; type: functional
Streptococcus pneumoniae [11] = assay: Antimicrobial activity against penicillin-susceptible Streptococcus pneumoniae by broth microdilution method; type: functional
[12] = Cytotoxicity against HeLa cells after 3 days by MTS assay; type: cell-based; details: human
Staphylococcus aureus [13] = assay: Antimicrobial activity against methicillin-resistant Staphylococcus aureus by broth microdilution method; type: functional
[14] = system: Staphylococcus epidermidis; assay: Antimicrobial activity against methicillin-susceptible Staphylococcus epidermidis by broth microdilution method; type: functional
Enterococcus faecalis [15] = assay: Antimicrobial activity against vancomycin-resistant Enterococcus faecalis by broth microdilution method; type: functional
Staphylococcus aureus [16] = assay: Antimicrobial activity against methicillin-susceptible Staphylococcus aureus by broth microdilution method; type: functional
Streptococcus agalactiae = assay: Antimicrobial activity against Streptococcus agalactiae by broth microdilution method; type: functional

With CCC[C@@H]1C[C@@H](C(=O)N[C@@H]([C@H]2O[C@H](SC)[C@H](O)[C@@H](O)[C@H]2O)[C@H](C)Cl)N(C)C1 [CLINDAMYCIN] the MIC50 (Clostridioides difficile) was 4 µg/mL (≈ 9.41 µM) and the MIC90 (Clostridioides difficile) was > 8 µg/mL.
For Cc1ncc([N+](=O)[O-])n1CCO [METRONIDAZOLE], the MIC50 (Clostridioides difficile) was 0.12 µg/mL (≈ 0.701 µM) and the MIC90 (Clostridioides difficile) was 0.5 µg/mL (≈ 2.92 µM).
Work on O=C(O)c1cn(C2CC2)c2cc(N3CCNCC3)c(F)cc2c1=O [CIPROFLOXACIN] yielded an MIC50 (Acinetobacter baumannii [1]) of 2 µg/mL (≈ 6.04 µM), an MIC90 (Acinetobacter baumannii [1]) of 4 µg/mL (≈ 12.1 µM) and an MIC50 (Burkholderia cepacia) of 2 µg/mL (≈ 6.04 µM). The MIC90 (Burkholderia cepacia) was 2 µg/mL (≈ 6.04 µM), the MIC50 (Klebsiella pneumoniae [2]) was > 8 µg/mL and the MIC90 (Klebsiella pneumoniae [2]) was > 8 µg/mL. The MIC50 (Proteus mirabilis) was 2 µg/mL (≈ 6.04 µM), the MIC90 (Proteus mirabilis) was > 8 µg/mL and the MIC50 (Klebsiella pneumoniae [3]) was > 32 µg/mL. The MIC90 (Klebsiella pneumoniae [3]) was > 32 µg/mL, the MIC50 (Acinetobacter baumannii [4]) was 0.25 µg/mL (≈ 0.754 µM) and the MIC90 (Acinetobacter baumannii [4]) was > 2 µg/mL. The MIC (Pseudomonas aeruginosa) was > 8 µg/mL, the MIC50 (Pseudomonas aeruginosa) was > 8 µg/mL and the MIC90 (Pseudomonas aeruginosa) was > 8 µg/mL. It also gave an MIC50 (Escherichia coli) of 2 µg/mL (≈ 6.04 µM) and an MIC90 (Escherichia coli) of 4 µg/mL (≈ 12.1 µM).
For GENTAMICIN, the MIC50 (Serratia marcescens) was 4 µg/mL, the MIC90 (Serratia marcescens) was 4 µg/mL and the MIC50 (Acinetobacter baumannii [1]) was 0.5 µg/mL. For the same compound, the MIC90 (Acinetobacter baumannii [1]) was 4 µg/mL, the MIC50 (Burkholderia cepacia) was 0.5 µg/mL and the MIC90 (Burkholderia cepacia) was > 8 µg/mL. The MIC50 (Klebsiella pneumoniae [2]) was 0.25 µg/mL, the MIC90 (Klebsiella pneumoniae [2]) was 1 µg/mL and the MIC50 (Proteus mirabilis) was 1 µg/mL. The MIC90 (Proteus mirabilis) was 8 µg/mL, the MIC50 (Klebsiella pneumoniae [3]) was 0.5 µg/mL and the MIC90 (Klebsiella pneumoniae [3]) was 2 µg/mL. The MIC50 (Acinetobacter baumannii [4]) was 0.06 µg/mL, the MIC90 (Acinetobacter baumannii [4]) was > 8 µg/mL and the MIC50 (Pseudomonas aeruginosa) was 2 µg/mL. For the same compound, the MIC90 (Pseudomonas aeruginosa) was > 32 µg/mL, the MIC50 (Escherichia coli) was 1 µg/mL and the MIC90 (Escherichia coli) was 1 µg/mL.
With c1cc2cc(-c3ccc(-c4cc5ccc(C6=NCCCN6)cc5[nH]4)cc3)[nH]c2cc1C1=NCCCN1 the MIC50 (Haemophilus influenzae) was 1 µg/mL (≈ 2.12 µM), the MIC90 (Haemophilus influenzae) was 4 µg/mL (≈ 8.46 µM) and the MIC (Enterococcus faecium [5]) was 0.004 µg/mL (≈ 0.00846 µM). The MIC50 (Enterococcus faecium [5]) was 0.004 µg/mL (≈ 0.00846 µM), the MIC90 (Enterococcus faecium [5]) was 0.004 µg/mL (≈ 0.00846 µM) and the MIC50 (Enterococcus faecalis [6]) was 0.06 µg/mL (≈ 0.127 µM). For the same compound, the MIC90 (Enterococcus faecalis [6]) was 0.06 µg/mL (≈ 0.127 µM), the MIC50 [7] was 0.015 µg/mL (≈ 0.0317 µM) and the MIC90 [7] was 0.06 µg/mL (≈ 0.127 µM). It also gave an MIC50 (Enterococcus faecium [8]) of 0.004 µg/mL (≈ 0.00846 µM), an MIC90 (Enterococcus faecium [8]) of 0.015 µg/mL (≈ 0.0317 µM) and an MIC (Serratia marcescens) of 0.12 µg/mL (≈ 0.254 µM). The MIC50 (Serratia marcescens) was 0.12 µg/mL (≈ 0.254 µM), the MIC90 (Serratia marcescens) was 0.25 µg/mL (≈ 0.529 µM) and the MIC50 (Streptococcus pneumoniae [9]) was 0.03 µg/mL (≈ 0.0635 µM). For the same compound, the MIC90 (Streptococcus pneumoniae [9]) was 0.03 µg/mL (≈ 0.0635 µM), the MIC50 (Streptococcus pneumoniae [10]) was 0.03 µg/mL (≈ 0.0635 µM) and the MIC90 (Streptococcus pneumoniae [10]) was 0.06 µg/mL (≈ 0.127 µM). The MIC50 (Streptococcus pneumoniae [11]) was 0.03 µg/mL (≈ 0.0635 µM), the MIC90 (Streptococcus pneumoniae [11]) was 0.03 µg/mL (≈ 0.0635 µM) and the MIC50 (Acinetobacter baumannii [1]) was 2 µg/mL (≈ 4.23 µM). It also gave an MIC90 (Acinetobacter baumannii [1]) of 4 µg/mL (≈ 8.46 µM), an MIC50 (Burkholderia cepacia) of 0.06 µg/mL (≈ 0.127 µM) and an MIC90 (Burkholderia cepacia) of 0.12 µg/mL (≈ 0.254 µM). For the same compound, the MIC50 (Klebsiella pneumoniae [2]) was 0.12 µg/mL (≈ 0.254 µM), the MIC90 (Klebsiella pneumoniae [2]) was 0.5 µg/mL (≈ 1.06 µM) and the CC50 at 72 h [12] was 4 µg/mL (≈ 8.46 µM). The MIC50 (Staphylococcus aureus [13]) was 0.06 µg/mL (≈ 0.127 µM), the MIC90 (Staphylococcus aureus [13]) was 0.12 µg/mL (≈ 0.254 µM) and the MIC50 [14] was 0.03 µg/mL (≈ 0.0635 µM). For the same compound, the MIC90 [14] was 0.06 µg/mL (≈ 0.127 µM), the MIC50 (Enterococcus faecalis [15]) was 0.015 µg/mL (≈ 0.0317 µM) and the MIC90 (Enterococcus faecalis [15]) was 0.03 µg/mL (≈ 0.0635 µM). The MIC50 (Proteus mirabilis) was 1 µg/mL (≈ 2.12 µM), the MIC90 (Proteus mirabilis) was 2 µg/mL (≈ 4.23 µM) and the MIC50 (Staphylococcus aureus [16]) was 0.12 µg/mL (≈ 0.254 µM). For the same compound, the MIC90 (Staphylococcus aureus [16]) was 0.5 µg/mL (≈ 1.06 µM), the MIC50 (Klebsiella pneumoniae [3]) was 0.25 µg/mL (≈ 0.529 µM) and the MIC90 (Klebsiella pneumoniae [3]) was 0.5 µg/mL (≈ 1.06 µM). The MIC50 (Acinetobacter baumannii [4]) was 0.5 µg/mL (≈ 1.06 µM), the MIC90 (Acinetobacter baumannii [4]) was 4 µg/mL (≈ 8.46 µM) and the MIC50 (Clostridioides difficile) was 0.06 µg/mL (≈ 0.127 µM). For the same compound, the MIC90 (Clostridioides difficile) was 0.12 µg/mL (≈ 0.254 µM), the MIC50 (Pseudomonas aeruginosa) was 0.25 µg/mL (≈ 0.529 µM) and the MIC90 (Pseudomonas aeruginosa) was 1 µg/mL (≈ 2.12 µM). For the same compound, the MIC (Streptococcus agalactiae) was 0.03 µg/mL (≈ 0.0635 µM), the MIC50 (Streptococcus agalactiae) was 0.03 µg/mL (≈ 0.0635 µM) and the MIC90 (Streptococcus agalactiae) was 0.03 µg/mL (≈ 0.0635 µM). For the same compound, the MIC50 (Escherichia coli) was 0.12 µg/mL (≈ 0.254 µM) and the MIC90 (Escherichia coli) was 0.25 µg/mL (≈ 0.529 µM).
CN(C)c1cc(NC(=O)CNC(C)(C)C)c(O)c2c1C[C@H]1C[C@H]3[C@H](N(C)C)C(O)=C(C(N)=O)C(=O)[C@@]3(O)C(O)=C1C2=O [TIGECYCLINE] gave an MIC50 (Serratia marcescens) of 0.5 µg/mL (≈ 0.854 µM), an MIC90 (Serratia marcescens) of 2 µg/mL (≈ 3.41 µM) and an MIC50 (Acinetobacter baumannii [1]) of 0.5 µg/mL (≈ 0.854 µM). For the same compound, the MIC90 (Acinetobacter baumannii [1]) was 2 µg/mL (≈ 3.41 µM), the MIC50 (Burkholderia cepacia) was > 8 µg/mL and the MIC90 (Burkholderia cepacia) was > 8 µg/mL. For the same compound, the MIC50 (Klebsiella pneumoniae [2]) was 0.03 µg/mL (≈ 0.0512 µM), the MIC90 (Klebsiella pneumoniae [2]) was > 2 µg/mL and the MIC50 (Proteus mirabilis) was 0.5 µg/mL (≈ 0.854 µM). The MIC90 (Proteus mirabilis) was > 32 µg/mL, the MIC50 (Klebsiella pneumoniae [3]) was 1 µg/mL (≈ 1.71 µM) and the MIC90 (Klebsiella pneumoniae [3]) was > 8 µg/mL. The MIC50 (Acinetobacter baumannii [4]) was 0.25 µg/mL (≈ 0.427 µM), the MIC90 (Acinetobacter baumannii [4]) was > 8 µg/mL and the MIC50 (Pseudomonas aeruginosa) was 0.5 µg/mL (≈ 0.854 µM). For the same compound, the MIC90 (Pseudomonas aeruginosa) was > 32 µg/mL, the MIC (Escherichia coli) was 0.12 µg/mL (≈ 0.205 µM) and the MIC50 (Escherichia coli) was 0.12 µg/mL (≈ 0.205 µM). The MIC90 (Escherichia coli) was 0.25 µg/mL (≈ 0.427 µM).
